Here are results for one compound from paper PMC11749085, “Paeoniflorin relieves arterial stiffness induced by a high-fat/high-sugar diet by disrupting the YAP-PPM1B interaction” (Life Medicine, 2023).

As a reminder, the IC50 is the concentration at which inhibition is half-maximal. Read a low IC50 as higher potency.

Experiment [1] deals with T1, YAP-CC domain (Homo sapiens, UniProt P46937).
T1 construct: gene YAP1
Description: biolayer interferometry. It counts as binding. Particulars: read-out: affinity. From the text:
biolayer interferometry on YAP-CC domain | a binding between paeoniflorin and the YAP-CC domain with an affinity of […]
(In general: In BLI a coated tip is dipped into the sample, and binding shifts an interference pattern.)

The target in experiment [2] is T2, LgBiT-YAP-CC / SmBiT-PPM1B (Homo sapiens, UniProt P46937).
T2 construct: gene YAP1; with Protein phosphatase 1B
Description: NanoBiT split-luciferase protein-protein interaction assay in HeLa cells. Format: cell-based.

T1 sequence (P46937 298-328): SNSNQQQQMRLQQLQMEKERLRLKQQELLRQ
T2 sequence (P46937 298-328): as above
T2 sequence (O75688 2-479 partner): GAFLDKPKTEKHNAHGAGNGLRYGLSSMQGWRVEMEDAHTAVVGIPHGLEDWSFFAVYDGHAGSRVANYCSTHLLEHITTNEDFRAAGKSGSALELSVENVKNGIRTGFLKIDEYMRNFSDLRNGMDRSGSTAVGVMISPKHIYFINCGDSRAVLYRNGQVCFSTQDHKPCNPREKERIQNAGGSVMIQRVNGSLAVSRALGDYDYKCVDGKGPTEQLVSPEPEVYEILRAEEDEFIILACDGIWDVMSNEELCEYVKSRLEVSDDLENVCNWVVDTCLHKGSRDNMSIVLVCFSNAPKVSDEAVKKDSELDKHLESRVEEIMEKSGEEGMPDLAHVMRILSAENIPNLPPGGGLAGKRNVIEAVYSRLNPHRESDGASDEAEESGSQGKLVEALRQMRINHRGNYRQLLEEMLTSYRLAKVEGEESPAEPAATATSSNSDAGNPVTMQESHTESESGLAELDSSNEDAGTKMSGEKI

`C[C@@]12C[C@@]3(O)O[C@@H](O1)[C@]1(COC(=O)c4ccccc4)[C@H]3C[C@@]12O[C@@H]1O[C@H](CO)[C@@H](O)[C@H](O)[C@H]1O` [paeoniflorin]: in experiment [1], the Kd is 40.5 µM. In experiment [2], this compound registered a half-inhibitory concentration (IC50) of 4.8 µM.
